From patent publication US20210163471A1, “PROGRANULIN MODULATORS AND METHODS OF USING THE SAME” (ARKUDA THERAPEUTICS, priority 2017, published 2021) come the findings set out here.

By EC50 is commonly meant the concentration at which the effect is half-maximal.

SMILES strings stand for the structures. Read-outs that look alike come from different tables or passages of the source. Where only a bound is given, the exact number is not on record here.

The assay concerns BV-2 (mouse microglia) cells. Briefly: progranulin secretion from BV-2 cells, mouse progranulin ELISA of conditioned media. It counts as cell-based. As to conditions: BV-2 cells, 16 hours incubation, 8-point curves starting at 10 μM. On the procedure:
BV-2 cells are split the day before plating into a 96 well plate format at approximately 80%. Cells should be plated the day before and allowed for 1 hour attachment period and for 16 hour incubation. […] Standard ELISA kits to measure PGRN are available from vendors such as Adipogen, R&D, and Biovendor.
Compound potency was determined by measuring progranulin secretion from BV-2 (mouse microglia) cells. BV-2 cells were grown in RPMI with 2 mM L-glutamine supplemented with 10% fetal bovine serum. On the day of the assay, cells were plated in 96-well plates at a density of 30,000 cells/well in RPMI (Roswell Park Memorial Institute media)/L-glutamine supplemented with 2% Fetal clone serum II (plating media) and left to adhere for 1 hour. Following attachment to the plate, media was replaced with treatment (8-point curves in half-log dilutions starting at 10 μM) in plating media and incubated for 16 hours. Secreted progranulin was measured from a 1:10 dilution of the conditioned media using the R&D Systems mouse progranulin ELISA kit (cat #DY2557) and following the manufacturer's instructions.
On the technique in general: In an ELISA, binding on a coated surface is turned into a signal by an enzyme label.

Where [1] appears, read: Mus musculus, assay run v1, read-out: PRGN v1 (EC50, progranulin secretion).
[2] abbreviates: assay run v1, read-out: PRGN v1 (EC50, progranulin secretion).
The mark [3] stands for this setting: Mus musculus, assay run v2 (same protocol, different assay), read-out: PRGN v2 (EC50, progranulin secretion).
The mark [4] stands for this setting: assay run v2 (same protocol, different assay), read-out: PRGN v2 (EC50, progranulin secretion).

With `CS(=O)(=O)c1ccc([C@H]2c3ccccc3CCN2C(=O)O[C@@H]2CN3CCC2CC3)cc1` [Compound 1001, (S)—((S)-quinuclidin-3-yl)-1-(4-(methylsulfonyl)phenyl)-3,4-dihydroisoquinoline-2(1H)-carboxylate], under setting [1], the EC50 is > 10 µM. Take `O=C(O[C@@H]1CN2CCC1CC2)N1CCc2ccccc2[C@@H]1c1ccnc(O)c1` [Compound 1002]: the EC50 under setting [2] was > 10 µM. Take `O=C(O[C@@H]1CN2CCC1CC2)N1CCc2ccccc2[C@H]1c1ccnc(O)c1` [Compound 1003]: the EC50 under setting [2] was > 10 µM.

For the compound `O=C(O[C@@H]1CN2CCC1CC2)N1CCc2ccccc2[C@@H]1c1ccc(F)cc1` [Compound 1004, (S)—((S)-quinuclidin-3-yl) 1-(4-fluorophenyl)-3,4-dihydroisoquinoline-2(1H)-carboxylate], the EC50 runs as follows: under setting [1], 0.36 µM; under setting [3], 0.43 µM. In the case of `O=C(O[C@@H]1CN2CCC1CC2)N1CCc2ccccc2[C@H]1c1ccc(F)cc1` [Compound 1005], the EC50 under setting [1] was > 7 µM. Still for that read-out and setting: with `O=C(O[C@@H]1CN2CCC1CC2)N1CCc2ccccc2[C@@H]1c1ccc(-n2ccnc2)cc1` [Compound 1006] the figure was 5.7 µM; with `O=C(O[C@@H]1CN2CCC1CC2)N1CCc2ccccc2[C@H]1c1ccc(-n2ccnc2)cc1` [Compound 1007], > 10 µM. Consider `COc1cc([C@H]2c3ccccc3CCN2C(=O)O[C@@H]2CN3CCC2CC3)ccn1` [Compound 1008], for which the EC50 under setting [2] is > 10 µM.

With `COc1cc([C@@H]2c3ccccc3CCN2C(=O)O[C@@H]2CN3CCC2CC3)ccn1` [Compound 1009], the EC50 under setting [2] is > 10 µM. As for `O=C(O[C@@H]1CN2CCC1CC2)N1CCc2ccccc2[C@@H]1c1ccc(F)c(F)c1` [Compound 1010], the EC50 by setting is: under setting [1], 0.92 µM; under setting [3], 2.03 µM. In the case of `O=C(O[C@@H]1CN2CCC1CC2)N1CCc2ccccc2[C@H]1c1ccc(F)c(F)c1` [Compound 1011], the EC50 under setting [1] turned out to be 7.14 µM and the EC50 under setting [3] stood at 8.74 µM. In the case of `O=C(O[C@@H]1CN2CCC1CC2)N1CCc2ccccc2[C@@H]1c1ccc(F)cc1F` [Compound 1012], the EC50 under setting [2] stood at 0.44 µM and the EC50 under setting [4] is 0.25 µM. With `O=C(O[C@@H]1CN2CCC1CC2)N1CCc2ccccc2[C@H]1c1ccc(F)cc1F` [Compound 1013], the EC50 under setting [2] was > 10 µM and the EC50 under setting [4] stood at 1.75 µM. For `O=C(O[C@@H]1CN2CCC1CC2)N1CCc2ccccc2[C@H]1c1cccc(F)c1F` [Compound 1014], in that order: > 10 µM and 4.3 µM.

`O=C(O[C@@H]1CN2CCC1CC2)N1CCc2ccccc2[C@@H]1c1cccc(F)c1F` [Compound 1015]: the concentration for a half-maximal effect (EC50) under setting [2] is 0.33 µM and the EC50 under setting [4] was determined as 1.11 µM. With `O=C1CCCN1c1ccc([C@H]2c3ccccc3CCN2C(=O)O[C@@H]2CN3CCC2CC3)cc1` [Compound 1016], the EC50 is, setting by setting: under setting [1], > 10 µM; under setting [3], > 10 µM. Consider `O=C1CCCN1c1ccc([C@@H]2c3ccccc3CCN2C(=O)O[C@@H]2CN3CCC2CC3)cc1` [Compound 1017], for which the EC50 under setting [1] was > 10 µM and the EC50 under setting [3] is > 10 µM.

`O=C(O[C@@H]1CN2CCC1CC2)N1CCc2ccccc2[C@@H]1c1ccc(-n2cncn2)cc1` [Compound 1018]: the EC50 is, setting by setting: under setting [1], > 10 µM; under setting [3], > 10 µM.

As to `O=C(O[C@@H]1CN2CCC1CC2)N1CCc2ccccc2[C@H]1c1ccc(-n2cncn2)cc1` [Compound 1019], the EC50 is, setting by setting: under setting [1], > 10 µM; under setting [3], > 10 µM. As to `O=C(O[C@@H]1CN2CCC1CC2)N1CCc2ccccc2[C@@H]1c1cccc(F)c1` [Compound 1020], the EC50 is, setting by setting: under setting [2], 1.37 µM; under setting [4], 3.55 µM. For `O=C(O[C@@H]1CN2CCC1CC2)N1CCc2ccccc2[C@H]1c1cccc(F)c1` [Compound 1021], in that order: > 10 µM and 1.03 µM. As for `O=C(O[C@@H]1CN2CCC1CC2)N1CCc2ccccc2[C@@H]1c1ccc(OC2CC2)cc1` [Compound 1022], the EC50 was > 10 µM under setting [1] and > 10 µM under setting [3]. Regarding `O=C(O[C@@H]1CN2CCC1CC2)N1CCc2ccccc2[C@H]1c1ccc(OC2CC2)cc1` [Compound 1023], the EC50 reads like this: under setting [1], 9.53 µM; under setting [3], 6.33 µM. `COc1ccc([C@H]2c3ccccc3CCN2C(=O)O[C@@H]2CN3CCC2CC3)cc1` [Compound 1024]: the EC50 is, setting by setting: under setting [2], 2.87 µM; under setting [4], 2.91 µM. Taken in the same sequence, the figures for `COc1ccc([C@@H]2c3ccccc3CCN2C(=O)O[C@@H]2CN3CCC2CC3)cc1` [Compound 1025] were 4.41 µM and > 10 µM. Taken in the same sequence, the figures for `O=C1CCC([C@H]2c3ccccc3CCN2C(=O)O[C@@H]2CN3CCC2CC3)CN1` (stereo partly shown) [Compound 1026] were > 10 µM and > 10 µM. For `O=C1CCC([C@@H]2c3ccccc3CCN2C(=O)O[C@@H]2CN3CCC2CC3)CN1` (stereo partly shown) [Compound 1027], in that order: 9.53 µM and > 10 µM. For the compound `COc1ccc([C@H]2c3ccccc3CCN2C(=O)O[C@@H]2CN3CCC2CC3)cn1` [Compound 1028], the EC50 was > 10 µM under setting [2] and > 10 µM under setting [4]. In the case of `COc1ccc([C@@H]2c3ccccc3CCN2C(=O)O[C@@H]2CN3CCC2CC3)cn1` [Compound 1029], the EC50 under setting [2] was > 10 µM and the EC50 under setting [4] is > 10 µM. For `O=C(O[C@@H]1CN2CCC1CC2)N1CCc2ccccc2[C@@H]1CS(=O)(=O)c1ccccc1` [Compound 1030], the EC50 is, setting by setting: under setting [1], > 10 µM; under setting [3], > 10 µM.

With `O=C(O[C@@H]1CN2CCC1CC2)N1CCc2ccccc2[C@H]1CS(=O)(=O)c1ccccc1` [Compound 1031], the EC50 was > 10 µM under setting [1] and > 10 µM under setting [3]. As to `O=C(O[C@@H]1CN2CCC1CC2)N1CCc2ccccc2[C@@H]1c1ccc2ncsc2c1` [Compound 1032], the EC50 runs as follows: under setting [2], > 10 µM; under setting [4], 7.88 µM. Taken in the same sequence, the figures for `O=C(O[C@@H]1CN2CCC1CC2)N1CCc2ccccc2[C@H]1c1ccc2ncsc2c1` [Compound 1033] were > 10 µM and > 10 µM.

Consider `O=C(O[C@@H]1CN2CCC1CC2)N1CCc2ccccc2[C@@H]1c1ccc2scnc2c1` [Compound 1034], for which the EC50 under setting [2] is > 10 µM and the EC50 under setting [4] is 5.77 µM. Turning to `O=C(O[C@@H]1CN2CCC1CC2)N1CCc2ccccc2[C@H]1c1ccc2scnc2c1` [Compound 1035], the EC50 runs as follows: under setting [2], > 10 µM; under setting [4], > 10 µM. For the compound `O=C(O[C@@H]1CN2CCC1CC2)N1CCc2ccccc2[C@@H]1c1cc2ccccc2s1` [Compound 1036], the EC50 is, setting by setting: under setting [2], > 3.16 µM; under setting [4], > 10 µM. Turning to `O=C(O[C@@H]1CN2CCC1CC2)N1CCc2ccccc2[C@H]1c1cc2ccccc2s1` [Compound 1037], the EC50 under setting [2] is > 3.16 µM and the EC50 under setting [4] is > 10 µM. Take `COc1ccc([C@H]2c3ccccc3CCN2C(=O)O[C@@H]2CN3CCC2CC3)cc1F` [Compound 1038]: the EC50 under setting [4] is > 10 µM. Still for that read-out and setting: with `COc1ccc([C@@H]2c3ccccc3CCN2C(=O)O[C@@H]2CN3CCC2CC3)cc1F` [Compound 1039] the figure was > 10 µM. Regarding `O=C(O[C@@H]1CN2CCC1CC2)N1CCc2ccccc2[C@@H]1c1cc(F)cc(F)c1` [Compound 1040], under setting [4], the EC50 is > 10 µM. As for `O=C(O[C@@H]1CN2CCC1CC2)N1CCc2ccccc2[C@H]1c1cc(F)cc(F)c1` [Compound 1041], the EC50 under setting [4] was > 10 µM.
